Experiment in all cases: NCI anticancer screen, dose series, 48 h
Test [1] has as its system COLO 205 colon.
Test [2] concerns DU-145 prostate.
Test [3] deals with HCT-116 colon.
In test [4] the test system is IGROV1 ovarian.
In test [5] the test system is NCI-H226 lung.
Test [6] relates to PC-3 prostate.
The subject of test [7] is RPMI-8226 leukemia.
Test [8] deals with SK-MEL-2 melanoma.
Test [9] concerns SK-MEL-5 melanoma.
Test [10] relates to SW-620 colon.

Molecules are shown by their SMILES. Values joined by “and” are separate entries in the source; they are usually repeats but may differ in a detail not shown here. Equal values may be shown once.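 Cells were grown in 96-well plates and exposed to each compound for 48 hours at five concentrations; endpoints were interpolated linearly between bracketing concentrations, or set to the highest concentration if not reached. At the GI50, growth is halved. The concentration for full growth arrest is given as TGI.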

Regarding `CC(=O)OC1CC(n2cc(F)c(=O)[nH]c2=O)OC1CO` (stereo not given), the TGI in test [1], in test [2], in test [3], in test [4], in test [5] and in test [6] was greater than 100 µM in each case. Moreover, the TGI in test [7] was greater than 100 µM; in test [8], greater than 100 µM; in test [9], 16.2 µM; in test [10], greater than 86.8 µM.
Turning to `NS(=O)(=O)c1cc2c(cc1Cl)NC(Cc1ccccc1)NS2(=O)=O` (stereo not given), the TGI in [1], in test [2], in test [3], in test [4], in test [5] and in test [6] was greater than 100 µM in each case. For the same molecule, the TGI in test [7], in test [8], in test [9] and in test [10] was greater than 100 µM each time.
With `CCN(CC)CCCNc1cccc2c(SCc3ccccc3)ccnc12`, the GI50 was 1840 nM in test [1]; 1860 nM in test [2]; 1600 nM in test [3]; 1900 nM in [4]; 3.45 µM in test [5]; 1860 nM in test [6]. Further, the GI50 in test [7] was 1240 nM; in test [8], 1.89 µM; in test [9] it was 1680 nM; in test [10] it was 1700 nM. Also, the TGI was found to be 3.44 µM in test [1]; 3.49 µM in test [2]; 2.95 µM in [3]; 3.75 µM in [4]; 15.6 µM in [5]; 4.88 µM in test [6]. For the same molecule, the TGI in test [7] is 3.37 µM; in test [8], 3.56 µM; in test [9], 3.08 µM; in test [10], 3.46 µM.
Turning to `C1CCN(CCC2CCCCN2)CC1` (stereo not given), the TGI in test [1], in test [2], in test [3], in test [4], in test [5] and in test [6] was greater than 100 µM in each case. The TGI in [7], in [8], in [9] and in test [10] was greater than 100 µM each time.
`CN1CCCNc2c(c(=O)c2=O)NCCCN(C)CCCNc2c(c(=O)c2=O)NCCCN(C)CCCNc2c(c(=O)c2=O)NCCCN(C)CCCNc2c(c(=O)c2=O)NCCCN(C)CCCNc2c(c(=O)c2=O)NCCCN(C)CCCNc2c(c(=O)c2=O)NCCCN(C)CCCNc2c(c(=O)c2=O)NCCC1`: the GI50 is 2000 nM in test [1]; 1680 nM in [2]; 5810 nM in test [3]; 3130 nM in test [4]; 8.43 µM in test [5]; 7020 nM in test [6]. For the same molecule, the GI50 was 3510 nM in test [7], 3.12 µM in test [8], 6690 nM in [9] and 4630 nM in [10]. Besides, the TGI came to 6.13 µM in [1]; 5.9 µM in test [2]; 17.4 µM in test [3]; 23.8 µM in [4]; 21.8 µM in [5]; 22.2 µM in test [6]. For the same molecule, the TGI in test [7] stood at 31.2 µM; in [8] it was 31.6 µM; in test [9], 21.9 µM; in [10], 25.3 µM.
Take `CC1/C=C/C=C/C=C/C=C/C=C/C=C/C=C/C(O[C@@H]2O[C@H](C)[C@H](O)[C@@H](O)[C@@H]2N)CC(O)C(C(=O)O)C(O)CC(=O)CC(O)CC(O)CC(O)CC(=O)CCCC(=O)CC(=O)OC1C(C)CC(C)C(O)CC(=O)c1ccc(N)cc1` (stereo not given in full): the GI50 was 559 nM in [1]; 68.7 nM and 335 nM in test [2]; 58.1 nM and 219 nM in test [3]; 59.8 nM and 226 nM in [4]; 0.218 µM in test [5]; 64.6 nM and 222 nM in test [6]. For the same molecule, the GI50 was 74.8 nM and 238 nM in [7]; 0.267 µM in [8]; 52.2 nM and 212 nM in test [9]; 58.8 nM and 198 nM in test [10]. The TGI was 1.72 µM in [1]; 0.148 µM and 1.06 µM in [2]; 0.103 µM and 0.485 µM in test [3]; 0.116 µM and 0.536 µM in test [4]; 0.581 µM in [5]; 0.137 µM and 0.552 µM in [6]. Also, the TGI in test [7] is 0.171 µM and 0.682 µM; in test [8], 0.813 µM; in [9], 0.0961 µM and 0.496 µM; in test [10] it was 0.109 µM and 0.43 µM.
`C=C(C)[C@@H]1CC[C@]2(C)[C@H](C(=O)C=C3[C@@H]4C[C@](C)(C(=O)N5CCN(C)CC5)CC[C@]4(C)CC[C@]32C)[C@@]1(C)CCC#N`: the GI50 was 5780 nM in [1]; 7850 nM in test [2]; 3030 nM in [3]; 6580 nM in test [4]; 7.42 µM in test [5]; 3170 nM in test [6]. The GI50 is 5470 nM in test [7], 7.57 µM in test [8], 7300 nM in [9] and 6990 nM in test [10]. Besides, the TGI was 13.4 µM in test [1]; 15.3 µM in [2]; 9.33 µM in test [3]; 14.6 µM in [4]; 15.9 µM in test [5]; 10.4 µM in test [6]. In addition, the TGI is 15.4 µM in test [7], 14.8 µM in test [8], 13.9 µM in test [9] and 14.9 µM in test [10].
Take `CCCCCC(O)C1C(=O)OC(C)C(O)/C=C/C=C/C=C/C=C\C=C(\C)C(O)CC(O)CC(O)CC(O)CC(O)CC(O)CC1O` (stereo not given): the GI50 was greater than 100000 nM in [1]; greater than 100000 nM in [2]; greater than 100000 nM in [3]; greater than 100000 nM in test [4]; greater than 100 µM in test [5]; greater than 100000 nM in test [6]. The GI50 is greater than 100000 nM in test [7], greater than 100 µM in test [8], greater than 100000 nM in [9] and greater than 100000 nM in test [10]. Also, the TGI in test [1], in test [2], in test [3], in test [4], in test [5] and in [6] was greater than 100 µM in each case. The TGI in test [7], in test [8], in test [9] and in test [10] was greater than 100 µM throughout.
Turning to `C/C(=N\NC(=O)c1ccncc1)c1ccc2ccccc2c1O`, the TGI in [1] worked out at 11.5 µM; in [2] it was 38.2 µM; in test [3], 10.5 µM; in test [4], 99.3 µM; in test [5], 12.1 µM; in [6] it was 96.9 µM. For the same molecule, the TGI is greater than 64.4 µM in test [7], greater than 100 µM in test [8], 14.1 µM in test [9] and greater than 100 µM in [10].

Source of the values: PubChem BioAssay (NCI).
